Data published in patent publication EP3202813A1, “CURABLE COMPOSITION AND MOLDED ARTICLE COMPRISING THE COMPOSITION” (Telene SAS, priority 2016, dated 2017).

Test: Half-life t1/2CT of radical generators, calculated by Arrhenius formulae from supplier data
Type: physicochemical
From the text: The half-life of the radical generators used in the compositions for different curing temperatures CT have been calculated by using the well-known formulae given below and data obtained by the supplier of the radical generators (AkzoNobel) (Tables 1-4) kd = A⋅e^(−Ea/RT) [formula] t½ = (ln2)/kd [formula] • Ea = 127.52 kJ/mole • A = 7.59E+13 s^-1 • R = 8.3142 J/mole·K • T = (273.15+°C) K Table 1: The half-life t1/2CT of Trigonox 29C at different curing temperatures CT
kd = A⋅e^(−Ea/RT) [formula] t½ = (ln2)/kd [formula] • Ea = 124.90 kJ/mole • A = 1.54E+14 s^-1 • R = 8.3142 J/mole·K • T = (273.15+°C) K Table 2: The half-life t1/2CT of Trigonox 21S at different curing temperatures CT
kd = A⋅e^(−Ea/RT) [formula] t½ = (ln2)/kd [formula] • Ea = 140.78 kJ/mole • A 1.94E+15 s^-1 • R = 8.3142 J/mole·K • T =(273.15+°C) K Table 3: The half-life t1/2CT of Trigonox 42S at different curing temperatures CT
kd = A⋅e^(−Ea/RT) [formula] t½ = (ln2)/kd [formula] • Ea = 153.46 kJ/mole • A = 4.20E+15 s^-1 • R = 8.3142 J/mole·K • T = (273.15+°C) K Table 4: The half-life t1/2CT of Trigonox B at different curing temperatures CT

CC(C)(C)OOC(C)(C)C [Trigonox B, tert-butyl peroxide]
t1/2 (T 80 °C): 2291.85 h | t1/2 (h) (T 80 °C): 2291,8 h | t1/2 (min) (T 80 °C): 137511,0 min | t1/2 (T 90 °C): 543.4131 h | t1/2 (h) (T 90 °C): 543,4 h | t1/2 (min) (T 90 °C): 32604,8 min | t1/2 (T 95 °C): 272.481 h | t1/2 (h) (T 95 °C): 272,5 h | t1/2 (min) (T 95 °C): 16348,8 min | t1/2 (T 100 °C): 139.18 h | t1/2 (h) (T 100 °C): 139,2 h | t1/2 (min) (T 100 °C): 8350,8 min | t1/2 (T 105 °C): 72.3653 h | t1/2 (h) (T 105 °C): 72,4 h | t1/2 (min) (T 105 °C): 4341,9 min | t1/2 (T 110 °C): 38.2736 h | t1/2 (h) (T 110 °C): 38,3 h | t1/2 (min) (T 110 °C): 2296,4 min | t1/2 (T 120 °C): 11.239 h | t1/2 (h) (T 120 °C): 11,2 h | t1/2 (min) (T 120 °C): 674,4 min | t1/2 (T 130 °C): 3.5075 h | t1/2 (h) (T 130 °C): 3,5 h | t1/2 (min) (T 130 °C): 210,4 min | t1/2 (T 150 °C): 0.4028 h | t1/2 (h) (T 150 °C): 0,4 h | t1/2 (min) (T 150 °C): 24,2 min | t1/2 (T 190 °C): 0.00944 h | t1/2 (h) (T 190 °C): 0,01 h | t1/2 (min) (T 190 °C): 0,6 min
